23 compounds from patent publication US9187465B2, “Oxazole tyrosine kinase inhibitors” (Sareum Limited, priority 2007, dated 2015) can be followed below.

What all share (assay type): biochemical
The target of one test is T1, human FLT4 (Homo sapiens, UniProt P35916).
T1 construct: a construct expressing the human FLT4 (789-1207) with an amino terminal GST tag; host or cells: Sf9 insect cells (baculovirus)
The test can be described thus: FLT4 kinase assay (DELFIA enzyme inhibition). Particulars: read-out: FLT4 IC50. A digest of the protocol:
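Read-out is DELFIA: biotinylated MET Tyr1253-derived peptide captured on Neutravidin, phosphotyrosine detected by Eu-antibody time-resolved fluorescence. Enzyme is Sf9-expressed GST-FLT4 (789-1207), reacting 30 min at room temperature before EDTA stop. IC50 derived from plotted % inhibition.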

A further test addresses T2, human Aurora A (Homo sapiens, UniProt O14965).
T2 construct: Histidine tag (N); host or cells: Sf9 insect cells (baculovirus)
T2 sequence (O14965 1-403): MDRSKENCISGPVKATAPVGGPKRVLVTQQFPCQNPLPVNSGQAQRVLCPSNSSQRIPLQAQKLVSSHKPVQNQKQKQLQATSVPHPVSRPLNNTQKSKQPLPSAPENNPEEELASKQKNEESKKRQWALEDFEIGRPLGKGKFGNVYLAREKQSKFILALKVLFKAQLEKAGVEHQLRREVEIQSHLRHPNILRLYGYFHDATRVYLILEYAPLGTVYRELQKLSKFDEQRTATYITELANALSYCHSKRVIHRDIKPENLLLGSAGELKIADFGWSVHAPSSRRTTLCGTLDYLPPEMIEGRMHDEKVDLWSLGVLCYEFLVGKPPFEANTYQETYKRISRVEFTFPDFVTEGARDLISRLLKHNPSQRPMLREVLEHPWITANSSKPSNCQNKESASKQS
The test can be described thus: Aurora A kinase assay (DELFIA enzyme inhibition). As to conditions: read-out: Aurora A IC50. A digest of the protocol: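 DELFIA read-out (time-resolved Eu fluorescence, 620 nm emission) after Neutravidin capture of biotinylated peptide substrate and antibody detection. Reaction: Ni-agarose-purified Aurora A, 30 min at room temperature, stopped with 100 mM EDTA.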

A further test deals with T3, human FLT3 (Homo sapiens, UniProt P36888).
T3 construct: a construct expressing the human FLT3 (564-993) with an amino terminal GST tag; host or cells: Sf9 insect cells (baculovirus)
T3 sequence (P36888 564-993): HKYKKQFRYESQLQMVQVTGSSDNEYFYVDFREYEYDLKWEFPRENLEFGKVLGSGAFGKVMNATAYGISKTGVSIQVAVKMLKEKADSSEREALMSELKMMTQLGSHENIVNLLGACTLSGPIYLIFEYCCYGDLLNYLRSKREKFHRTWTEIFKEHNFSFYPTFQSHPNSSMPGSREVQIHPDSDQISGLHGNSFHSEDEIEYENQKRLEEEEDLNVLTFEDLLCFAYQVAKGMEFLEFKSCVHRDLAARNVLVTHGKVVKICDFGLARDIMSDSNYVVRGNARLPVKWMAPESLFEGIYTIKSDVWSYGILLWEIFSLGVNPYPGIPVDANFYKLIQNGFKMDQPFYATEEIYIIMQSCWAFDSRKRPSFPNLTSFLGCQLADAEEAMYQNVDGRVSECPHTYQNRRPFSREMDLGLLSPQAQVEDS
Put plainly: FLT3 kinase assay (DELFIA enzyme inhibition). A digest of the protocol:
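GST-tagged human FLT3 (564-993), expressed in sf9 cells, phosphorylated a biotinylated Gastrin Precursor (Tyr 87)-derived peptide for 30 min at room temperature before EDTA stop. The captured peptide was detected by Eu-labelled anti-phosphotyrosine DELFIA time-resolved fluorescence. IC50 was derived from % inhibition curves.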

Bounds are passed on as bounds.

T1 sequence (P35916 789-1207): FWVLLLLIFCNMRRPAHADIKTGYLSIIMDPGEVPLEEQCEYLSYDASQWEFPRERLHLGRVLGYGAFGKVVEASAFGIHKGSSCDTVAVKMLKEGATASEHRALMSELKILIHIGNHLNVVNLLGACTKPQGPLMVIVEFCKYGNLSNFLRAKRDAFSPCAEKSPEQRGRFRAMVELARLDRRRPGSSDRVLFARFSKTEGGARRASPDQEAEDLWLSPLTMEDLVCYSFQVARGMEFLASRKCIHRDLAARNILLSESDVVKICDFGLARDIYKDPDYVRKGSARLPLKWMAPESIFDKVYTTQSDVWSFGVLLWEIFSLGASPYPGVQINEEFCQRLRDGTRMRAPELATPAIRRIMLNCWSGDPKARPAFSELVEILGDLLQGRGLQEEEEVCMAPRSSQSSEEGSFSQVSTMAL

Turning to `CN1CCN(C(=O)c2ccc(Nc3oc(-c4c(F)cccc4F)nc3C(N)=O)cc2)[C@H](CO)C1` [Example U-27, (S)-2-(2,6-difluorophenyl)-5-(4-(3-(hydroxymethyl)-1-methylpiperazine-4-carbonyl)phenylamino)oxazole-4-carboxamide], the IC50 at human FLT4, on human Aurora A and at human FLT3 was under 10 µM each time.
For the compound `NC(=O)c1nc(-c2c(F)cccc2F)oc1Nc1cccc(OCCN2CCOCC2)c1` [Example Q-10, 2-(2,6-difluorophenyl)-5-(3-(2-morpholinoethoxy)phenylamino)oxazole-4-carboxamide], the IC50 on human FLT4, at human Aurora A and against human FLT3 was under 10 µM each time.
Regarding `CNC(=O)N1CCN(c2ccc(-c3oc(-c4c(F)cccc4F)nc3C(N)=O)cn2)CC1` [Example J-2, 4-(5-(4-carbamoyl-2-(2,6-difluorophenyl)oxazol-5-yl)pyridin-2-yl)-N-methylpiperazine-1-carboxamide], the IC50 on human FLT4, at human Aurora A and against human FLT3 was under 10 µM in each case.
As to `NC(=O)c1nc(-c2c(F)cccc2F)oc1Nc1ccc(-c2cc(CO)on2)cc1` [Example Q-33, 2-(2,6-difluorophenyl)-5-(4-(5-(hydroxymethyl)isoxazol-3-yl)phenylamino)oxazole-4-carboxamide], the IC50 at human FLT4 was under 10 µM; at human Aurora A, under 10 µM; at human FLT3 it was under 100 µM.
With `NC(=O)c1nc(-c2c(F)cccc2F)oc1Nc1ccc(-c2nnn[nH]2)cc1` [Example Q-34, 5-(4-(1H-tetrazol-5-yl)phenylamino)-2-(2,6-difluorophenyl)oxazole-4-carboxamide], the IC50 on human FLT4, at human Aurora A and against human FLT3 was under 10 µM each time.
On to `NC(=O)c1nc(-c2c(F)cccc2F)oc1Nc1ccc(C(=O)NC2CCNCC2)cc1` [Example U-21, 2-(2,6-difluorophenyl)-5-(4-(piperidin-4-ylcarbamoyl)phenylamino)oxazole-4-carboxamide], for which the IC50 on human FLT4, on human Aurora A and at human FLT3 was under 10 µM each time.
As to `NC(=O)c1nc(-c2ccccc2F)oc1-c1ccc(N2CCNCC2)cc1` [Example G-4, 2-(2-fluorophenyl)-5-(4-(piperazin-1-yl)phenyl)oxazole-4-carboxamide], the IC50 at human FLT4, at human Aurora A and at human FLT3 was under 10 µM throughout.
As for `NC(=O)c1nc(-c2c(F)cccc2F)oc1-c1ccc(COCCN2CCOCC2)cc1` [Example F-12, 2-(2,6-difluorophenyl)-5-(4-((2-morpholinoethoxy)methyl)phenyl)oxazole-4-carboxamide], the IC50 is under 10 µM at human FLT4, under 10 µM at human Aurora A and under 100 µM against human FLT3.
Consider `NC(=O)c1nc(-c2c(F)cccc2F)oc1Nc1ccc(S(N)(=O)=O)cc1` [Example Q-25, 2-(2,6-difluorophenyl)-5-(4-(sulfonamide)phenylamino)oxazole-4-carboxamide], for which the IC50 at human FLT4, at human Aurora A and against human FLT3 was under 10 µM in each case.
With `COc1cccc(Nc2nc(C(N)=O)c(-c3ccc(N4CCNCC4)cc3)o2)c1` [Example R-12, 2-(3-methoxyphenylamino)-5-(4-(piperazin-1-yl)phenyl)oxazole-4-carboxamide], the IC50 at human FLT4, at human Aurora A and on human FLT3 was under 10 µM in each case.
For `CC(=O)N1CCN(c2ccc(-c3oc(-c4c(F)cccc4F)nc3C(N)=O)cn2)CC1` [Example I-2, 5-(6-(4-acetylpiperazin-1-yl)pyridin-3-yl)-2-(2,6-difluorophenyl)oxazole-4-carboxamide], the half-inhibitory concentration (IC50) on human FLT4, at human Aurora A and at human FLT3 was under 10 µM in each case.
As for `NC(=O)c1nc(-c2c(F)cccc2F)oc1Nc1ccc(C(=O)N2CCC[C@@H]2CO)cc1` [Example U-12, (R)-2-(2,6-difluorophenyl)-5-(4-(2-(hydroxymethyl)pyrrolidine-1-carbonyl)phenylamino)oxazole-4-carboxamide], the IC50 on human FLT4, on human Aurora A and against human FLT3 was under 10 µM in each case.
On to `NC(=O)c1nc(-c2c(F)cccc2F)oc1Nc1ccc(C(=O)N2CCCCC2CO)cc1` (stereo not drawn) [Example U-14, 2-(2,6-difluorophenyl)-5-(4-(2-(hydroxymethyl)piperidine-1-carbonyl)phenylamino) oxazole-4-carboxamide], for which the IC50 on human FLT4, at human Aurora A and against human FLT3 was under 10 µM throughout.
For `NC(=O)c1nc(Nc2ccc3cn[nH]c3c2)oc1-c1ccc(N2CCNCC2)cc1` [Example R-16, 2-(1H-indazol-6-ylamino)-5-(4-(piperazin-1-yl)phenyl)oxazole-4-carboxamide], the IC50 on human FLT4, on human Aurora A and against human FLT3 was under 10 µM throughout.
Regarding `CN(C)CCOc1ccc(-c2oc(-c3c(F)cccc3F)nc2C(N)=O)cc1` [Example F-15, 2-(2,6-difluorophenyl)-5-(4-(2-(dimethylamino)ethoxy)phenyl)oxazole-4-carboxamide], the IC50 at human FLT4, on human Aurora A and against human FLT3 was under 10 µM each time.
Turning to `NC(=O)c1nc(-c2c(F)cccc2F)oc1-c1ccc(OCCN2CCNC(=O)C2)cc1` [Example S-9, 2-(2,6-difluorophenyl)-5-(4-(2-(3-oxopiperazin-1-yl)ethoxy)phenyl)oxazole-4-carboxamide], the IC50 at human FLT4, at human Aurora A and on human FLT3 was under 10 µM in each case.
Regarding `NC(=O)c1nc(-c2ccccc2F)oc1-c1ccc(OCCN2CCOCC2)cc1` [Example F-27, 2-(2-fluorophenyl)-5-(4-(2-morpholinoethoxy)phenyl)oxazole-4-carboxamide], the IC50 at human FLT4, on human Aurora A and against human FLT3 was under 10 µM throughout.
Regarding `NC(=O)c1nc(-c2c(F)cccc2F)oc1Nc1ccc(C(=O)O)cc1` [Example U-1, 4-(4-carbamoyl-2-(2,6-difluorophenyl)oxazol-5-ylamino)benzoic acid], the concentration for half-maximal inhibition (IC50) on human FLT4, at human Aurora A and against human FLT3 was under 10 µM throughout.
As to `CN1CCN(C(=O)c2ccc(Nc3oc(-c4c(F)cccc4F)nc3C(N)=O)cc2)[C@@H](CO)C1` [Example U-26, (R)-2-(2,6-difluorophenyl)-5-(4-(3-(hydroxymethyl)-1-methylpiperazine-4-carbonyl)phenylamino)oxazole-4-carboxamide], the IC50 at human FLT4, on human Aurora A and on human FLT3 was under 10 µM throughout.
For `COc1ccc(-c2oc(Nc3ccccc3)nc2C(N)=O)cc1` [Example R-1, 5-(4-methoxyphenyl)-2-(phenylamino)oxazole-4-carboxamide], the IC50 on human FLT4, at human Aurora A and at human FLT3 was under 10 µM each time.
Take `CN1CCC(NC(=O)c2ccc(Nc3oc(-c4c(F)cccc4F)nc3C(N)=O)cc2)CC1` [Example U-18, 5-(4-((1-methylpiperidin-4-yl)carbamoyl)phenylamino)-2-(2,6-difluorophenyl) oxazole-4-carboxamide]: the IC50 at human FLT4, on human Aurora A and on human FLT3 was under 10 µM in each case.
`COc1ccc(-c2oc(Nc3ccccc3F)nc2C(N)=O)cc1` [Example R-8, 2-(2-fluorophenylamino)-5-(4-methoxyphenyl)oxazole-4-carboxamide]: the IC50 at human FLT4, at human Aurora A and against human FLT3 was under 10 µM in each case.
In the case of `NC(=O)c1nc(-c2c(F)cccc2F)oc1Nc1ccc(-n2ccnc2)cc1` [Example Q-24, 5-(4-(1H-imidazol-1-yl)phenylamino)-2-(2,6-difluorophenyl)oxazole-4-carboxamide], the IC50 on human FLT4, at human Aurora A and at human FLT3 was under 10 µM throughout.

As usually defined, the IC50 is the concentration that inhibits the measured activity by half.
